A word on the IC50: it is the concentration that gives 50% inhibition. A higher IC50 goes with weaker potency in that assay. The MIC is the lowest concentration that inhibits growth of the organism.

Structures are written as SMILES. ≈ marks a conversion by molar mass, not a printed value.

For eight molecules, IC50 and MIC results are on record in ChEMBL document CHEMBL1157530, “Cytotoxic and antibacterial sesquiterpenes from Thespesia populnea” (J Nat Prod, 2008).

One assay relates to KB. The assay is described as follows: Cytotoxicity against human KB cells by SRB assay. Format: functional, cell-based. (Sulforhodamine B stains cellular protein and so reports cell mass.)
The next assay relates to HeLa. The assay can be described thus: Cytotoxicity against human HeLa cells by SRB assay. Format: functional, cell-based.
The next assay relates to HT-29. The assay can be described thus: Cytotoxicity against human HT29 cells by SRB assay. Type of assay: functional, cell-based.
For a further assay, the system named is MCF7. The assay can be described thus: Cytotoxicity against human MCF7 cells by SRB assay. Format: functional, cell-based.
The next assay concerns Bacillus subtilis. The assay can be described thus: Antibacterial activity against Bacillus subtilis. Format: functional.
The next assay concerns Staphylococcus aureus. The assay is described as follows: Antibacterial activity against Staphylococcus aureus TISTR517. Type of assay: functional.
Another assay has as its system Enterococcus faecalis. The assay is described as follows: Antibacterial activity against Enterococcus faecalis. Format: functional.

Take `CC1=CC2=C(C(C)C)C(=O)CC(C)C2=C(O)C1=O` (configuration not stated) [MANSONONE S]: the IC50 in the assay on KB, in the assay on HeLa, in the assay with HT-29 and in the assay on MCF7 was greater than 5 mg/L throughout.
`Cc1cc2c(C(C)C)ccc(C)c2cc1O`: the IC50 in the assay on KB, in the assay with HeLa, in the assay with HT-29 and in the assay with MCF7 was greater than 5 mg/L each time. Further, it took 0.59 mg/L (≈ 2.75 µM) to inhibit growth against Bacillus subtilis (MIC).
`Cc1cc2c(c(O)c1O)[C@H](C)CC1=C2[C@@H](C)COC1(C)C` [POPULENE D]: the 50% inhibitory concentration (IC50) came out at 3.1 mg/L (≈ 10.7 µM) in the assay on KB, 0.95 mg/L (≈ 3.29 µM) in the assay on HeLa, 2.37 mg/L (≈ 8.22 µM) in the assay with HT-29 and 1.85 mg/L (≈ 6.41 µM) with MCF7. The MIC with Bacillus subtilis is 4.69 mg/L (≈ 16.3 µM).
On the same counts, the results for `CC1=C2OCC(C)c3ccc(C)c(c32)C(=O)C1=O` (configuration not stated) [MANSONONE E] are 0.4 mg/L (≈ 1.65 µM), 0.55 mg/L (≈ 2.27 µM), 0.18 mg/L (≈ 0.743 µM), 0.05 mg/L (≈ 0.206 µM) and 4.69 mg/L (≈ 19.4 µM).
For the molecule `CC1=Cc2c(c(C)cc3c2C(C)CO3)C(=O)C1=O` (configuration not stated) [MANSONONE D], the IC50 was 4.9 mg/L (≈ 20.2 µM) in the assay with KB, 2.8 mg/L (≈ 11.6 µM) in the assay on HeLa, greater than 5 mg/L with HT-29 and 0.8 mg/L (≈ 3.3 µM) in the assay on MCF7. In the assay on Bacillus subtilis, this molecule gave an MIC of 2.34 mg/L (≈ 9.66 µM).
For `COc1c(O)c(C=O)c2c(O)c(-c3c(C)cc4c(C(C)C)c(OC)c(O)c(C=O)c4c3O)c(C)cc2c1C(C)C` [6,6'-METHOXYGOSSYPOL], the MIC is 4.69 mg/L (≈ 8.58 µM) in the assay with Staphylococcus aureus, 1.17 mg/L (≈ 2.14 µM) with Enterococcus faecalis and 2.34 mg/L (≈ 4.28 µM) in the assay on Bacillus subtilis. Besides, the IC50 in the assay with KB is greater than 5 mg/L; with HeLa, greater than 5 mg/L; in the assay on HT-29 it was 3 mg/L (≈ 5.49 µM); in the assay with MCF7, 4 mg/L (≈ 7.32 µM).
For the molecule `Cc1cc2c(C(C)C)c(O)c(O)c(C=O)c2c(O)c1-c1c(C)cc2c(C(C)C)c(O)c(O)c(C=O)c2c1O` [GOSSYPOL], the MIC with Staphylococcus aureus and against Bacillus subtilis was 1.17 mg/L (≈ 2.26 µM) each time. Further, the IC50 was 0.04 mg/L (≈ 0.0771 µM) with KB, 0.08 mg/L (≈ 0.154 µM) with HeLa and greater than 5 mg/L with HT-29.
With `CC1=Cc2c(c(C)cc3c2C(C)COC3(C)C)C(=O)C1=O` (configuration not stated) [POPULENE C], the MIC against Staphylococcus aureus is greater than 10 mg/L; with Bacillus subtilis, 4.69 mg/L (≈ 16.5 µM). Also, the IC50 was 3 mg/L (≈ 10.6 µM) with KB, 3.4 mg/L (≈ 12 µM) in the assay on HeLa, 2.9 mg/L (≈ 10.2 µM) in the assay with HT-29 and 2.35 mg/L (≈ 8.26 µM) in the assay on MCF7.
